Test results from ChEMBL document CHEMBL5108056, “Discovery of Isoform-Selective Akt3 Degraders Overcoming Osimertinib-Induced Resistance in Non-Small Cell Lung Cancer Cells” (J Med Chem, 2022).
Each block holds one compound with its values, some of them ahead of it. Calls of active or inactive are those of the source. The rule behind the calls is not given here.

Key:
[1] = molecular target: T1, RAC-beta serine/threonine-protein kinase (Homo sapiens, UniProt P31751); test: Induction of AKT2 degradation in human NCI-H1975 cells assessed as reduction in AKT2 protein level incubated for 24 hrs under serum free medium by Western blot analysis; assay type: cell-based
[2] = molecular target: T2, RAC-gamma serine/threonine-protein kinase (Homo sapiens, UniProt Q9Y243); test: Induction of AKT3 degradation in human NCI-H1975 cells assessed as reduction in AKT3 protein level at 1000 nM incubated for 24 hrs under serum free medium by Western blot analysis relative to control; assay type: cell-based
[3] = molecular target: T3, RAC-alpha serine/threonine-protein kinase (Homo sapiens, UniProt P31749); test: Induction of AKT1 degradation in human NCI-H1975 cells assessed as reduction in AKT1 protein level incubated for 24 hrs under serum free medium by Western blot analysis; assay type: cell-based
[4] = molecular target: T2, RAC-gamma serine/threonine-protein kinase; test: Induction of AKT3 degradation in human NCI-H1975 cells assessed as reduction in AKT3 protein level incubated for 24 hrs under serum free medium by Western blot analysis; assay type: cell-based
NCI-H1975 [5] = test: Antiproliferative activity against human NCI-H1975 cells assessed as reduction in cell viability incubated for 72 hrs by CCK-8 assay; conditions: NCI-H1975, 72 h
NCI-H1975 [6] = test: Antiproliferative activity against human NCI-H1975 cells harbouring Akt3 T305A/S472A mutant assessed as reduction in cell viability incubated for 72 hrs by CCK-8 assay; assay type: functional, cell-based; conditions: NCI-H1975, 72 h
NCI-H1975 [7] = test: Antiproliferative activity against human NCI-H1975 cells harbouring wild type Akt3 assessed as reduction in cell viability incubated for 72 hrs by CCK-8 assay; conditions: NCI-H1975, 72 h
[8] = molecular target: Epidermal growth factor receptor (Homo sapiens, UniProt P00533, T790M); test: Inhibition of EGFR T790M mutant in human NCI-H1975 cells incubated for 24 hrs under serum free medium by Western blot analysis; assay type: cell-based
[9] = molecular target: Epidermal growth factor receptor (Homo sapiens, UniProt P00533); test: Inhibition of EGFR in human NCI-H1975 cells; assay type: cell-based
[10] = molecular target: T2, RAC-gamma serine/threonine-protein kinase; test: Induction of AKT3 degradation in human osimertinib resistant NCI-H1975 cells assessed as increase in AKT3 degradation at 100 nM incubated for 24 hrs in presence of cycloheximide; assay type: cell-based
PC-9 = test: In vivo antitumor activity against human PC-9 cells xenografted in NOD-SCID mouse assessed as tumor growth inhibition at 20 mg/kg, ip qd administered once every 2 days for 28 days relative to control; assay type: functional; conditions: PC-9, 672 h, time 28 day, read-out: TGI
[11] = molecular target: T2, RAC-gamma serine/threonine-protein kinase; test: Induction of AKT3 degradation in human NCI-H460 cells assessed as reduction in AKT3 protein level incubated for 24 hrs by Western blot analysis; assay type: cell-based; conditions: dose 1.6-1000 nM, DDE = dose-dependent effect
[12] = molecular target: T2, RAC-gamma serine/threonine-protein kinase; test: Induction of AKT3 degradation in human osimertinib resistant NCI-H1975 cells assessed as reduction in AKT3 protein level incubated for 24 hrs by Western blot analysis; assay type: cell-based; conditions: dose 1.6-1000 nM, DDE = dose-dependent effect
[13] = molecular target: T2, RAC-gamma serine/threonine-protein kinase; test: Induction of endogenous AKT3 degradation in human osimertinib resistant NCI-H1975 cells; assay type: cell-based
NCI-H1975 [14] = test: In vivo induction of AKT3 degradation in human osimertinib resistant cells xenografted in NOD-SCID mouse assessed as reduction in AKT3 level in tumor tissue at 10 to 40 mg/kg, ip qd administered every 3 days for 5 weeks by Western blot analysis; assay type: functional, organism-based; conditions: dose 10-40 mg/kg
[15] = molecular target: T2, RAC-gamma serine/threonine-protein kinase; test: Induction of AKT3 degradation in human NCI-H1975 cells assessed as reduction in AKT3 protein level incubated for 24 hrs by Western blot analysis; assay type: cell-based; conditions: dose 1.6-1000 nM, DDE = dose-dependent effect
[16] = molecular target: T2, RAC-gamma serine/threonine-protein kinase; test: Induction of AKT3 degradation in human A549 cells assessed as reduction in AKT3 protein level incubated for 24 hrs by Western blot analysis; assay type: cell-based; conditions: dose 1.6-1000 nM, DDE = dose-dependent effect
[17] = molecular target: T2, RAC-gamma serine/threonine-protein kinase; test: Induction of AKT3 degradation in human HCC827 cells assessed as reduction in AKT3 protein level incubated for 24 hrs by Western blot analysis; assay type: cell-based; conditions: dose 1.6-1000 nM, DDE = dose-dependent effect
[18] = molecular target: T2, RAC-gamma serine/threonine-protein kinase; test: Induction of AKT3 degradation in human PC-9 cells assessed as reduction in AKT3 protein level incubated for 24 hrs by Western blot analysis; assay type: cell-based; conditions: dose 1.6-1000 nM, DDE = dose-dependent effect
NCI-H1975 [19] = test: In vivo antitumor activity against human osimertinib resistant NCI-H1975 cells xenografted in NOD-SCID mouse assessed as tumor growth inhibition at 40 mg/kg, ip qd administered every 3 days for 5 weeks relative to control; assay type: functional, organism-based
[20] = Toxicity in NOD-SCID mouse xenografted with human PC-9 cells assessed as change in body weight at 20 mg/kg, ip qd administered once every 2 days for 28 days; assay type: organism-based; conditions: in vivo, 672 h, time 28 day
[21] = molecular target: T2, RAC-gamma serine/threonine-protein kinase; test: Induction of AKT3 degradation in human NCI-H1299 cells assessed as reduction in AKT3 protein level incubated for 24 hrs by Western blot analysis; assay type: cell-based; conditions: dose 1.6-1000 nM, DDE = dose-dependent effect
NCI-H1975 [22] = test: Antiproliferative activity against human osimertinib resistant NCI-H1975 cells assessed as reduction in cell viability measured after 24 hrs by CCK-8 assay; assay type: functional, cell-based; conditions: NCI-H1975, 24 h
[23] = molecular target: T2, RAC-gamma serine/threonine-protein kinase; test: Binding affinity to AKT3 in human NCI-H1975 cells assessed as increase in thermal stability at 2 uM by thermal shift assay; assay type: cell-based
[24] = molecular target: T2, RAC-gamma serine/threonine-protein kinase; test: Induction of AKT3 degradation in human osimertinib resistant NCI-H1975 cells by gel fluorescence and Coomassie bright blue staining based analysis; assay type: cell-based
[25] = molecular target: T2, RAC-gamma serine/threonine-protein kinase; test: Induction of AKT3 degradation in human osimertinib resistant NCI-H1975 cells assessed as increase in AKT3 ubiquitination at 100 nM incubated for 24 hrs in the presence of proteosome inhibitor MG132 by immunoprecipitation analysis; assay type: cell-based
NCI-H1975 [26] = test: In vivo antitumor activity against human osimertinib resistant NCI-H1975 cells xenografted in NOD-SCID mouse assessed as tumor growth inhibition at 20 mg/kg, ip qd administered every 3 days for 5 weeks relative to control; assay type: functional, organism-based
[27] = Toxicity in NOD-SCID mouse xenografted with human osimertinib resistant NCI-H1975 cells assessed as change in body weight at 10 to 40 mg/kg, […] administered every 3 days for 5 weeks; assay type: organism-based; conditions: in vivo, 840 h, dose 10-40 mg/kg
NCI-H1975 [28] = test: In vivo antitumor activity against human osimertinib resistant NCI-H1975 cells xenografted in NOD-SCID mouse assessed as tumor growth inhibition at 10 mg/kg, ip qd administered every 3 days for 5 weeks relative to control; assay type: functional, organism-based
[29] = molecular target: T2, RAC-gamma serine/threonine-protein kinase; test: Binding affinity to full length N-terminal His6-sumo tagged AKT3 (unknown origin) expressed Escherichia coli BL21 (DE3) cells incubated for 2 hrs by pull-down/ LC-MS analysis
[30] = molecular target: T3, RAC-alpha serine/threonine-protein kinase; test: Induction of AKT1 degradation in human NCI-H1975 cells assessed as reduction in AKT1 protein level at 1000 nM incubated for 24 hrs under serum free medium by Western blot analysis relative to control; assay type: cell-based
[31] = molecular target: T1, RAC-beta serine/threonine-protein kinase; test: Induction of AKT2 degradation in human NCI-H1975 cells assessed as reduction in AKT2 protein level at 1000 nM incubated for 24 hrs under serum free medium by Western blot analysis relative to control; assay type: cell-based

T3 sequence (P31749 whole entry): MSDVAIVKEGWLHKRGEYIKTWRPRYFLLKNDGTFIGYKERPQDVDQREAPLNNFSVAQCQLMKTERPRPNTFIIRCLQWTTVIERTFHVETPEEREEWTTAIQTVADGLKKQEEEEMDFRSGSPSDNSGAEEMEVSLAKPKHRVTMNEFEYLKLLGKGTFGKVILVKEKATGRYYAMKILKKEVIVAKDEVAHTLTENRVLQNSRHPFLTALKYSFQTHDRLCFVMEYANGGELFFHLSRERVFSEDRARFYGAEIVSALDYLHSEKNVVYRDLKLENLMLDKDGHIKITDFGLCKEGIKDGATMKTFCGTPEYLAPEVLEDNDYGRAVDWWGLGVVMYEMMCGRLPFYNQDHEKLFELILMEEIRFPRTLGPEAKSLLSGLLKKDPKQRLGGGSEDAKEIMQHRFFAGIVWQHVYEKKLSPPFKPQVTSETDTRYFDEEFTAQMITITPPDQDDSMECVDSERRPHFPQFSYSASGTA
T1 sequence (P31751 whole entry): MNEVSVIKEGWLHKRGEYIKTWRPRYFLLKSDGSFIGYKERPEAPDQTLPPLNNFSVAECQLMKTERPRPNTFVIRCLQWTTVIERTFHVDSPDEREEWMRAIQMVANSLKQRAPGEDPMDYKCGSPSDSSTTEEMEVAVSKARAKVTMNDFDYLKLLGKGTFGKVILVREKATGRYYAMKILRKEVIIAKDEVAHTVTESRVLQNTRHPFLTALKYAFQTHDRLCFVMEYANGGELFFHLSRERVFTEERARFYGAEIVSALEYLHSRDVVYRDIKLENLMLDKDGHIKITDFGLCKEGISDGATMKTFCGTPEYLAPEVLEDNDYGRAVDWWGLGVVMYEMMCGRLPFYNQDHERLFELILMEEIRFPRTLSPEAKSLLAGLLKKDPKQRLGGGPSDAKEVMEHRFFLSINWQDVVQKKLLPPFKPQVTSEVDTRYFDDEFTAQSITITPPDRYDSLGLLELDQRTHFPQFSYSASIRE
T2 sequence (Q9Y243 whole entry): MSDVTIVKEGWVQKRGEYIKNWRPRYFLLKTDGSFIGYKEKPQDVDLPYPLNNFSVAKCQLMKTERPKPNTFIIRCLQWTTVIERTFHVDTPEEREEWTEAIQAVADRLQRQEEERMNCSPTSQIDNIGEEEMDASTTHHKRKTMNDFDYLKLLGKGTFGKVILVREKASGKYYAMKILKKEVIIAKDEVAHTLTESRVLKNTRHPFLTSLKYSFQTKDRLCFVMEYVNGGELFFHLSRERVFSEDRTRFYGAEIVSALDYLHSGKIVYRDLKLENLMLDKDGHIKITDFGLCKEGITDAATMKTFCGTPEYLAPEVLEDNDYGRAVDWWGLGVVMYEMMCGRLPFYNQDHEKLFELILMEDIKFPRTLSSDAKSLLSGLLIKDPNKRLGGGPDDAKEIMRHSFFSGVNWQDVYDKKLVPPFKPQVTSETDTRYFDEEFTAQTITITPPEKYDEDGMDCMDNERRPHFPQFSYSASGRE
Sequence of Epidermal growth factor receptor (Homo sapiens, UniProt P00533) (P00533 whole entry): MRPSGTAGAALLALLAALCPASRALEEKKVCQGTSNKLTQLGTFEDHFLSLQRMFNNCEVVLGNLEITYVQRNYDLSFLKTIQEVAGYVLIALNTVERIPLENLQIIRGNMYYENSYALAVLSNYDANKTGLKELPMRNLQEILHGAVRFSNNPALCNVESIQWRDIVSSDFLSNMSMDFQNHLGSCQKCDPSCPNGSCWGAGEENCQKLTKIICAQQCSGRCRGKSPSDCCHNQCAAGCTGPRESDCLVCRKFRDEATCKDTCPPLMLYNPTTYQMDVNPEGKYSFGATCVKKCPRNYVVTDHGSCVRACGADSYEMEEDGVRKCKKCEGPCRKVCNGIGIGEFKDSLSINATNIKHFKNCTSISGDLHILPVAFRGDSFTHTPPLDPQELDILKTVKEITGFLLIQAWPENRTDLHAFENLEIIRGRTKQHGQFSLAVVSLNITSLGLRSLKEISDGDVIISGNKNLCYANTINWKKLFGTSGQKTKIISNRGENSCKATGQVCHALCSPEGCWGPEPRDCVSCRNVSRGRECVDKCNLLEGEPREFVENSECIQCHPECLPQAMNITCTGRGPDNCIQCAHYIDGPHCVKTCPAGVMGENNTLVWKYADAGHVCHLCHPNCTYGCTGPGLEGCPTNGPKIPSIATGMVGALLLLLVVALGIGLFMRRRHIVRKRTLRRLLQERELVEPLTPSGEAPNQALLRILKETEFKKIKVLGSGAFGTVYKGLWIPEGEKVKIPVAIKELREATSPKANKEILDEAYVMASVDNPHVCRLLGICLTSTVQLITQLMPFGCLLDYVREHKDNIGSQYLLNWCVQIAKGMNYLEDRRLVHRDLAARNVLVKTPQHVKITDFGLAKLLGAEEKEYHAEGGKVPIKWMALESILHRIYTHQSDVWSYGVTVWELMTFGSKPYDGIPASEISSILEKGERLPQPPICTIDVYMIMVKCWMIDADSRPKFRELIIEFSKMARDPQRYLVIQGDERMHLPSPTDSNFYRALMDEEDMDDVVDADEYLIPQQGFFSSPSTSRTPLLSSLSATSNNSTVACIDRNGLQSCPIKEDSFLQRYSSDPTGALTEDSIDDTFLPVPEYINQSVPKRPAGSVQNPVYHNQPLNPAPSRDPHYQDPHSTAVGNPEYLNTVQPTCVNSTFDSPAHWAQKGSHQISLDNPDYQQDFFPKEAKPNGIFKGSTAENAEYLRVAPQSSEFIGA
Sequence of Epidermal growth factor receptor (Homo sapiens, UniProt P00533, T790M) (P00533 25-1210 T790M limits assumed): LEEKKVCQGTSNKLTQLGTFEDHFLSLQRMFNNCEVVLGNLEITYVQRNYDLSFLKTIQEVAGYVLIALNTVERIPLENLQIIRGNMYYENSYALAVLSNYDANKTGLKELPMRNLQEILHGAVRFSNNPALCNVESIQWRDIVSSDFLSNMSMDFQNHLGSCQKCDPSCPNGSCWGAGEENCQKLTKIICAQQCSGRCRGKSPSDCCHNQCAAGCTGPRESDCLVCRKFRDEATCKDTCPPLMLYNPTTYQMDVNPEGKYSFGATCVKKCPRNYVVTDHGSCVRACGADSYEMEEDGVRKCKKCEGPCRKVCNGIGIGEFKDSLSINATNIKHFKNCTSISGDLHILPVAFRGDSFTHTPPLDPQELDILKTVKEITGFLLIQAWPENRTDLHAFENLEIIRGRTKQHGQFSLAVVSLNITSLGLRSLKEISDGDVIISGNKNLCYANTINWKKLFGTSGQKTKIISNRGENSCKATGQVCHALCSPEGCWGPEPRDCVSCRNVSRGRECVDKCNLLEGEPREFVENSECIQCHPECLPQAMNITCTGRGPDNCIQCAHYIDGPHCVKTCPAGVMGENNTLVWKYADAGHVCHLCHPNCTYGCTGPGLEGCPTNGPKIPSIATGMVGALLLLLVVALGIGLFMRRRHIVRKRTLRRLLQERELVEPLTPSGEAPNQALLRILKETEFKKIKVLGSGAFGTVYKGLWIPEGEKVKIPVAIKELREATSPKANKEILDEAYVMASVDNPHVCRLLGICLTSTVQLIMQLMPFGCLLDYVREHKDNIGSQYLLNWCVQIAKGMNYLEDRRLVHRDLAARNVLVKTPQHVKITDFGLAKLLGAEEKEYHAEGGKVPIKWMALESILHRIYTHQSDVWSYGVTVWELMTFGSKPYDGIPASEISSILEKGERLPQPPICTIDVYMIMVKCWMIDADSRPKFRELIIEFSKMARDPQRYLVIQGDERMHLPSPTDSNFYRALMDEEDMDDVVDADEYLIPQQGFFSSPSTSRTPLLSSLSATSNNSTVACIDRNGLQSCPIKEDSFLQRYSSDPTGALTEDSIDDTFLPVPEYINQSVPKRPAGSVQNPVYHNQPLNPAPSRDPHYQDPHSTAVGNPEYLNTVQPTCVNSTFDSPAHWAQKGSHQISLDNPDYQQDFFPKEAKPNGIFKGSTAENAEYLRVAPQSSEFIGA

SMILES: CCC(=O)Nc1cccc(-n2c(=O)cc(C)c3cnc(Nc4ccc(N5CCN(CCCCCCCCCCCCNC(=O)CC67CC8CC(CC(C8)C6)C7)CC5)cc4OC)nc32)c1
- EC50 [1]: > 1000 nM
- Emax [2]: 74%
- EC50 [3]: > 1000 nM
- EC50 [4]: 34 nM

SMILES: C=CC(=O)Nc1cccc(-n2c(=O)cc(C)c3cnc(Nc4ccc(N5CCN(CCCCCCCCCCNC(=O)CC67CC8CC(CC(C8)C6)C7)CC5)cc4OC)nc32)c1
- EC50 [1]: > 1000 nM
- Emax [2]: 51%
- EC50 [3]: > 1000 nM
- EC50 [4]: 402 nM

SMILES: C=CC(=O)Nc1cccc(-n2c(=O)cc(C)c3cnc(Nc4ccc(N5CCN(CCCCCCCCCCCCNC(=O)CC67CC8CC(CC(C8)C6)C7)CC5)cc4OC)nc32)c1
- EC50 [1]: > 1000 nM
- Emax [2]: 73%
- EC50 [3]: > 1000 nM
- EC50 [4]: 52 nM
- EC50 [8]: 20.1 nM

SMILES: C=CC(=O)Nc1cccc(-n2c(=O)cc(C)c3cnc(Nc4ccc(N5CCN(C)CC5)cc4OC)nc32)c1
- EC50 [1]: > 1000 nM
- EC50 [3]: > 1000 nM
- EC50 [4]: > 1000 nM

SMILES: C=CC(=O)Nc1cccc(-n2c(=O)cc(C)c3cnc(Nc4ccc(N5CCN(CCCCCCCCNC(=O)CC67CC8CC(CC(C8)C6)C7)CC5)cc4OC)nc32)c1
- EC50 [1]: 82 nM
- Emax [30]: 55%
- Emax [2]: 75%
- EC50 [3]: 168 nM
- EC50 [4]: 52 nM
- Emax [31]: 69%

More lines, main results first:

- EC50 [1]: > 1000 nM
- EC50 [3]: > 1000 nM
- EC50 [4]: 1000 nM
SMILES: C=CC(=O)Nc1cccc(-n2c(=O)cc(C)c3cnc(Nc4ccc(N5CCN(CCCCCCNC(=O)CC67CC8CC(CC(C8)C6)C7)CC5)cc4OC)nc32)c1

- EC50 [1]: > 1000 nM
- Emax [2]: 71%
- EC50 [3]: > 1000 nM
- EC50 [4]: 33 nM
- EC50 [9]: 143 nM
SMILES: COc1cc(N2CCN(CCCCCCCCCCCCNC(=O)CC34CC5CC(CC(C5)C3)C4)CC2)ccc1Nc1ncc2c(C)cc(=O)n(-c3cccc(NC(=O)C(C)C)c3)c2n1

- EC50 [1]: > 1000 nM
- Activity [10]: Active
- Activity [11]: Dde
- Activity [12]: Dde
- Emax [2]: 88%
- Activity [13]: Active
- Activity [15]: Dde
- EC50 [3]: > 1000 nM
- EC50 [4]: 13 nM
- Activity [16]: Dde
- Activity [17]: Dde
- Activity [18]: Dde
- EC50 [9]: 579 nM
- Activity [21]: Dde
- IC50 (NCI-H1975 [22]): 7 nM
- Activity [23]: Active
- Activity [24]: Active
- Activity [25]: Active
- Activity [29]: Active
SMILES: COc1cc(N2CCN(CCCCCCCCCCCCNC(=O)CC34CC5CC(CC(C5)C3)C4)CC2)ccc1Nc1ncc2c(C)cc(=O)n(-c3cccc(NC(=O)C4CC4)c3)c2n1
- inhibition in vivo at 20 mg/kg (PC-9): 75%
- Activity (NCI-H1975 [14]): Active
- Activity (NCI-H1975 [19]): Active
- Activity [20]: Non-Toxic
- Activity (NCI-H1975 [26]): Active
- Activity [27]: Non-Toxic
- Activity (NCI-H1975 [28]): Active

- EC50 [1]: > 1000 nM
- Emax [2]: 75%
- EC50 [3]: > 1000 nM
- EC50 [4]: 120 nM
SMILES: C=CC(=O)Nc1cccc(-n2c(=O)cc(C)c3cnc(Nc4ccc(N5CCN(CCCCCCCCCCCCCCNC(=O)CC67CC8CC(CC(C8)C6)C7)CC5)cc4OC)nc32)c1
